The source of these data is US6673772B2, “Dipeptide compounds and their use as antiviral agents” (Sumitomo Pharmaceuticals Company Limited, priority 2000, dated 2004).

In series [1] the target is T1, recombinant HIV-1 protease (Human immunodeficiency virus type 1 group M subtype B, UniProt P04585).
T1 construct: 10.5 nM HIV-1 protease
Briefly: Measurement of HIV protease inhibitory activity. The class given is biochemical. To be noted: 50 nM compound; 10.5 nM HIV-1 protease, pH 6.5, 37° C., 60 minutes; read-out: HIV protease inhibition rate (%) at 50 nM. How it is done: Measurement of HIV protease inhibitory activity
The protease inhibitory activity was measured according to the method reported by T. Mimoto et al., J. Med. Chem., 42, 1789-1802 (1999) by using a recombinant HIV-1 protease (see Biochemistry, 250, 9, 264 (1990)) and a synthesized peptide substrate (H-Ser-Gln-Asn-Tyr-Pro-Ile-Val-OH). Specifically, reaction solutions (15 μl each) containing any one of the compounds synthesized in the above Examples 1-15 and Reference Examples 1-4, an inhibitor in which a known anti-AIDS agent (nelfinavir) is dissolved in DMSO in different concentrations, 10.5 nM HIV-1 protease, 20 mM synthesized peptide substrate, and 100 mM MES buffer solution (pH 6.5) were incubated at 37° C. for 60 minutes. Peptide fragments produced by cleaving the Tyr-Pro bonds in the synthesized peptide substrate was quantitatively measured by reverse phase HPLC.

Series [2] deals with human plasma. As to the kind of experiment: Protein binding to human plasma (ultrafiltration, unbound ratio). The class given is in vitro ADME. To be noted: concentration 1 μM; from regression line of FIG. 1; 18 hours at 37° C. How it is done:
Measurement of protein binding rate […] Freezed human plasma (HFFPP100) was used after thawing. Powder of human alpha 1-acid glycoprotein (supplied by SIGMA Co., hereinafter abbreviated to AAG) was dissolved in a phosphate buffer solution (PBS, pH 7.0) to a concentration of 1 mg/ml. […] Quantitative determination of unbound drug concentration […] All amount of the solution was transferred to Micropartition Devices (Centrifree®, Millipore Co.) and filtered by centrifugation at 1500 ×g for 20 minutes (using TOMY CX-210 high-speed cooling centrifugal machine). 200 μl of the filtrate was directly subjected to HPLC (Type: HITACHI D-7000, column: COSMOSIL (4.6* 250 mm, manufactured by Nacalai Tesque Co., Ltd.). The HPLC analysis was carried out by using a 59:41 (v/v) water-acetonitrile mixture containing 0.1% trifluoroacetic acid (TFA) as a mobile phase and measuring absorbance at 210 nm. The quantitative determination of unbound drug concentration was carried out based on the absolute calibration curve method using a calibration line obtained from the analysis of a standard sample which contains the drug at a known concentration. Analysis of protein binding properties A commonly accepted method (see Y. Odagiri et al., Protein Binding Experimental Method (1991), Hirokawa Publishing Co., Ltd.) was employed for the analysis of protein binding properties. […]

The nature of series [3]: Plasma concentration after intraduodenal administration to rats. To be noted: Sprague-Dawley, other: into the duodenum, rat, 10 mg/kg into the duodenum, 30 minutes after the administration. The class given is in vivo. On the procedure:
A pharmacological experiment of the compound of the present invention was carried out using Sprague-Dawley rats (300-400 g). 10 mg/kg of a 50% polyethylene glycol (PEG) solution (1 ml/kg) was administered into the duodenum under anesthesia and blood was collected over time. After the addition of a solvent, the collected blood plasma sample was shaken and centrifuged. The organic layer was concentrated and dissolved in 50% methanol. The sample thus obtained was analyzed by HPLC for the determination of concentration of the compound in plasma. The HPLC analysis was carried out using Capecellpak C18 (4.6×150 mm, Shiseido LTD) as a column and a mixed solvent of 0.1% TFA aqueous solution and acetonitrile as an eluent (see T. Mimoto et al. J. Med. Chem., 42, 1789-1802, 1999).
The compound of the present invention was confirmed to have pharmacological characteristics expected as an in vivo effect of the compound. For instance, when the compound of Example 1 of the present invention is administered to a rat at a dose of 10 mg/kg into the duodenum, the compound is detected in plasma of the rat at a concentration of 0.42 μg/ml 30 minutes after the administration.

Structures are written as SMILES.

On to `COc1ccc(C[C@H](NC(=O)c2cccc(O)c2C)[C@H](O)C(=O)N2CSC(C)(C)[C@H]2C(=O)NCc2ccccc2C)cc1` [Ex. 1, (R)-N-(2-methylbenzyl)-3-[(2S,3S)-2-hydroxy-3-(3-hydroxy-2-methylbenzoyl)amino-4-(4-methoxyphenyl)butanoyl]-5,5-dimethyl-1,3-thiazolidine-4-carboxamide], for which the inhibition at 0.05 µM in series [1] was found to be 95%. For the same molecule, the “ratio of unbound drug (human plasma)” value in series [2] worked out at 0.029. The same molecule yielded a concentration at 30 min in series [3] of 420 ng/mL.

`COc1ccc(C[C@H](NC(=O)c2cccc(O)c2C)[C@H](O)C(=O)N2CSC(C)(C)[C@H]2C(=O)NCc2cc(F)ccc2C)cc1` [Ex. 2, (R)-N-(5-fluoro-2-methylbenzyl)-3-[(2S,3S)-2-hydroxy-3-(3-hydroxy-2-methyl-benzoyl)amino-4-(4-methoxyphenyl)butanoyl]-5,5-dimethyl-1,3-thiazolidine-4-carboxamide]: the inhibition at 0.05 µM in series [1] is 97%.

On to `COc1ccc(C[C@H](NC(=O)c2ccc(F)c(O)c2C)[C@H](O)C(=O)N2CSC(C)(C)[C@H]2C(=O)NCc2ccccc2C)cc1` [Ex. 3, (R)-N-(2-methylbenzyl)-3-[(2S,3S)-2-hydroxy-3-(4-fluoro-3-hydroxy-2-methyl-benzoyl)amino-4-(4-methoxyphenyl)butanoyl]5,5-dimethyl-1,3-thiazolidine-4-carboxamide], for which the inhibition at 0.05 µM in series [1] was 93%.

For the molecule `COc1ccc(C[C@H](NC(=O)c2cccc(N)c2Cl)[C@H](O)C(=O)N2CSC(C)(C)[C@H]2C(=O)NCc2ccccc2C)cc1` [Ex. 4, (R)-N-(2-methylbenzyl)-3-[(2S,3S)-2-hydroxy-3-(3-amino-2-chlorobenzoyl)amino-4-(4-methoxyphenyl)butanoyl]-5,5-dimethyl-1,3-thiazolidine-4-carboxamide], the inhibition at 0.05 µM in series [1] was determined as 91%.

`CCOc1ccc(C[C@H](NC(=O)c2cccc(O)c2C)[C@H](O)C(=O)N2CSC(C)(C)[C@H]2C(=O)NCc2ccccc2C)cc1` [Ex. 5, (R)-N-(2-methylbenzyl)-3-[(2S,3S)-2-hydroxy-3-(3-hydroxy-2-methylbenzoyl)amino-4-(4-ethoxyphenyl)butanoyl]-5,5-dimethyl-1,3-thiazolidine-4-carboxamide]: the inhibition at 0.05 µM in series [1] came to 95%.

On to `Cc1ccccc1CNC(=O)[C@H]1N(C(=O)[C@@H](O)[C@H](Cc2ccc3c(c2)OCO3)NC(=O)c2cccc(O)c2C)CSC1(C)C` [Ex. 6, (R)-N-(2-methylbenzyl)-3-[(2S,3S)-2-hydroxy-3-(3-hydroxy-2-methylbenzoyl)amino-4-(3,4-methylenedioxyphenyl)butanoyl]-5,5-dimethyl-1,3-thiazolidine-4-carboxamide], for which, in series [1], the inhibition at 0.05 µM was 97%.

`CCCOc1ccc(C[C@H](NC(=O)c2cccc(O)c2C)[C@H](O)C(=O)N2CSC(C)(C)[C@H]2C(=O)NCc2ccccc2C)cc1` [Ex. 7, (R)-N-(2-methylbenzyl)-3-[(2S,3S)-2-hydroxy-3-(3-hydroxy-2-methylbenzoyl)amino-4-(4-n-propoxyphenyl)butanoyl]-5,5-dimethyl-1,3-thiazolidine-4-carboxamide]: in series [1], the inhibition at 0.05 µM is 97%.

As to `Cc1ccccc1CNC(=O)[C@H]1N(C(=O)[C@@H](O)[C@H](Cc2ccc(OC(C)C)cc2)NC(=O)c2cccc(O)c2C)CSC1(C)C` [Ex. 8, (R)-N-(2-methylbenzyl)-3-[(2S,3S)-2-hydroxy-3-(3-hydroxy-2-methylbenzoyl)amino-4-(4-isopropoxyphenyl)butanoyl]-5,5-dimethyl-1,3-thiazolidine-4-carboxamide], the inhibition at 0.05 µM in series [1] was 96%.

For `Cc1ccccc1CNC(=O)[C@H]1N(C(=O)[C@@H](O)[C@H](Cc2ccc(C(C)C)cc2)NC(=O)c2cccc(O)c2C)CSC1(C)C` [Ex. 10, (R)-N-(2-methylbenzyl)-3-[(2S,3S)-2-hydroxy-3-(3-hydroxy-2-methylbenzoyl)amino-4-(4-isopropylphenyl)butanoyl]-5,5-dimethyl-1,3-thiazolidine-4-carboxamide], the inhibition at 0.05 µM in series [1] was determined as 96%.

Consider `Cc1ccccc1CNC(=O)[C@H]1N(C(=O)[C@@H](O)[C@H](Cc2ccc(Cl)cc2)NC(=O)c2cccc(O)c2C)CSC1(C)C` [Ex. 11, (R)-N-(2-methylbenzyl)-3-[(2S,3S)-2-hydroxy-3-(3-hydroxy-2-methylbenzoyl)amino-4-(4-chlorophenyl)butanoyl]-5,5-dimethyl-1,3-thiazolidine-4-carboxamide], for which, in series [1], the inhibition at 0.05 µM was 97%.

Regarding `CCOc1ccc(C[C@H](NC(=O)c2cccc(N)c2Cl)[C@H](O)C(=O)N2CSC(C)(C)[C@H]2C(=O)NCc2ccccc2C)cc1` [Ex. 12, (R)-N-(2-methylbenzyl)-3-[(2S,3S)-2-hydroxy-3-(3-amino-2-chlorobenzoyl)amino-4-(4-ethoxyphenyl)butanoyl]-5,5-dimethyl-1,3-thiazolidine-4-carboxamide], the inhibition at 0.05 µM in series [1] was found to be 89%.

For the molecule `Cc1ccccc1CNC(=O)[C@H]1N(C(=O)[C@@H](O)[C@H](Cc2ccc3c(c2)OCO3)NC(=O)c2cccc(N)c2Cl)CSC1(C)C` [Ex. 13, (R)-N-(2-methylbenzyl)-3-[(2S,3S)-2-hydroxy-3-(3-amino-2-chlorobenzoyl)amino-4-(3,4-methylenedioxyphenyl)butanoyl]-5,5-dimethyl-1,3-thiazolidine-4-carboxamide], the inhibition at 0.05 µM in series [1] worked out at 95%.

`COc1ccc(C[C@H](NC(=O)c2cccc(N)c2Cl)[C@H](O)C(=O)N2CSC(C)(C)[C@H]2C(=O)NCc2c(C)cccc2C)cc1` [Ex. 14, (R)-N-(2,6-dimethylbenzyl)-3-[(2S,3S)-2-hydroxy-3-(3-amino-2-chlorobenzoyl)amino-4-(4-methoxyphenyl)butanoyl]-5,5-dimethyl-1,3-thiazolidine-4-carboxamide]: the inhibition at 0.05 µM in series [1] is 92%.

`Cc1cccc(C)c1CNC(=O)[C@H]1N(C(=O)[C@@H](O)[C@H](Cc2ccc3c(c2)OCO3)NC(=O)c2cccc(N)c2Cl)CSC1(C)C` [Ex. 15, (R)-N-(2,6-dimethylbenzyl)-3-[(2S,3S)-2-hydroxy-3-(3-amino-2-chlorobenzoyl)amino-4-(3,4-methylenedioxyphenyl)butanoyl]-5,5-dimethyl-1,3-thiazolidine-4-carboxamide]: the inhibition at 0.05 µM in series [1] turned out to be 96%.

`Cc1c(O)cccc1C(=O)N[C@@H](CSc1ccccc1)[C@H](O)CN1C[C@H]2CCCC[C@H]2C[C@H]1C(=O)NC(C)(C)C` [Re. 5, nelfinavir, reference compound]: in series [1], the inhibition at 0.05 µM stood at 93%.
